From US6372209B1, “Vaginal lactobacillus medicant” (Gyne Logix, Inc., priority 1997, dated 2002)

Tested on: vaginal epithelial cells (VECs)
Assay: In vitro adherence to vaginal epithelial cells (frozen VECs, McIlvaine's buffer pH 4.5, Gram stain count)
Type: cell-based, human
Settings: for % VEC ADH / X ± 1 STD (logarithmic mean adherence of LAB per 50 VEC) / Range (adhered LAB per VEC) / Overall Averages # LAB/VEC / Overall Averages % Adherence: Inactive LAB; for average adherence value: 8 VEC donors
Procedure: (1.2) Adherence to vaginal epithelial cells (VECs): Immediately after sampling, vaginal epithelial cells were transferred to MEM tissue culture medium, pH 7.2, washed 3 times in a syringe and passed through a 8μ filter (Millipore) which retains vaginal cells but passes bacteria. A total of 10^5 washed vaginal cells were added to a suspension of 10^9 Lactobacilli/ml (enumerated with a counting chamber) and incubated for 2.5 hours at 37° C. After washing and filtering to remove unattached Lactobacilli, the vaginal cells were stained using Gram stain. The number of Lactobacilli that adhered to the epithelial cells was counted and recorded using a light microscope equipped with a camera. Both the mean number of Lactobacilli cells adhered per VEC (average adherence value) and the percent VEC cohesion value, as described above, were calculated. The percent VEC cohesion value, defined as the percentage of VECs to which at least one Lactobacillus cell is adhered of the total number of VECs in an identified group, was used to determine whether a particular strain would be selected as having a desirable adherence characteristic. Since ongoing adherence studies required a constant supply of vaginal epithelial cells, the vaginal epithelial cells were pre-washed and stored at −70° C. until time of use.
Table 1 and Table 2 show the in vitro adherence studies using frozen VECs from donors representing the most prevalent ABO blood types. […] Strain CTV-05 (Lot LB-022) was preserved in suppository format as described in detail in Example 3. Suppositories were stored at both room (RT) and refrigerator (Ref.) temperatures for 5.5 months prior to testing. It is important to note that the cells of strain CTV-05 used in these studies were not in an actively growing metabolic state. Rather, a suppository containing CTV-05 was placed directly into McIlvaine's buffer (pH 4.5) without pregrowing the microbial cells to an active state. The cells were then directly added to VECs. Results are shown as (1) the logarithmic mean adherence of CTV-05 per 50 VECs (X ±1 standard deviation), (2) as the actual range of adhered CTV-05 per VEC in a total count of 50 VECs, and (3) as the percent VEC cohesion value (% VEC ADH). The description of terms in Table 1 is as follows: ^1X±STD=logarithmic mean adherence of LAB per 50 VEC, +1 standard deviation; ^2 Range=actual range of adhered LAB per VEC in a total count of 50 VECs; ^3% VEC ADH=percent of 50 VECs showing adherence of LAB strain CTV-05, Lot LB-022, stored for 5.5 months at refrigerated (Ref.) and/or room temperature (RT); and *Nursing Mother.
The buffer was then added directly to previously frozen VECs from human donors. Actively growing CTV-05 was also added to previously frozen VECs.

[1] = Agar, donor O+, cycle day 7, Gram stain score 2
[2] = Agar, donor O+, cycle day 15, Gram stain score 2
[3] = Agar, donor O+, cycle day 20, Gram stain score 6
[4] = Broth, donor A+, cycle day 3, Gram stain score 4
[5] = Broth, donor A+, cycle day 17, Gram stain score 9
[6] = Broth, donor A+, cycle day 37, Gram stain score 8
[7] = Broth, donor AB+, cycle day 24, Gram stain score 4
[8] = Broth, donor A−, cycle day 8 mos., Gram stain score 4
[9] = Broth, donor B+, cycle day 13, Gram stain score 9
[10] = Broth, donor O+, cycle day 7, Gram stain score 2
[11] = Broth, donor O+, cycle day 7, Gram stain score 4
[12] = Broth, donor O+, cycle day 15, Gram stain score 2
[13] = Broth, donor O+, cycle day 20, Gram stain score 6

Lactobacillus crispatus CTV-05
% VEC ADH [1]: 100%
X ± 1 STD (logarithmic mean adherence of LAB per 50 VEC) [1]: 21.4 ± 2.5
% VEC ADH [2]: 38%
Range (adhered LAB per VEC) [2]: 0-11 LAB per VEC
X ± 1 STD (logarithmic mean adherence of LAB per 50 VEC) [2]: 1.9 ± 2.1
% VEC ADH [3]: 200%
X ± 1 STD (logarithmic mean adherence of LAB per 50 VEC) [3]: 60.9 ± 2.1
Overall Averages # LAB/VEC (Agar, frozen VECs): 43.7 LAB/VEC
Overall Averages % Adherence (Agar, frozen VECs): 91.1%
% VEC ADH [4]: 46%
X ± 1 STD (logarithmic mean adherence of LAB per 50 VEC) [4]: 6.4 ± 3.9
% VEC ADH [5]: 38%
X ± 1 STD (logarithmic mean adherence of LAB per 50 VEC) [5]: 3.1 ± 3.2
% VEC ADH [6]: 98%
X ± 1 STD (logarithmic mean adherence of LAB per 50 VEC) [6]: 10.9 ± 3.6
% VEC ADH [7]: 72%
Range (adhered LAB per VEC) [7]: 0-178 LAB per VEC
X ± 1 STD (logarithmic mean adherence of LAB per 50 VEC) [7]: 7.1 ± 3.5
% VEC ADH [8]: 99%
Range (adhered LAB per VEC) [8]: 0-56 LAB per VEC
X ± 1 STD (logarithmic mean adherence of LAB per 50 VEC) [8]: 6.5 ± 3.0
% VEC ADH [9]: 60%
X ± 1 STD (logarithmic mean adherence of LAB per 50 VEC) [9]: 7.3 ± 4.7
% VEC ADH [10]: 100%
Range (adhered LAB per VEC) [10]: 1-96 LAB per VEC
X ± 1 STD (logarithmic mean adherence of LAB per 50 VEC) [10]: 5.7 ± 2.8
% VEC ADH [11]: 92%
Range (adhered LAB per VEC) [11]: 0-96 LAB per VEC
X ± 1 STD (logarithmic mean adherence of LAB per 50 VEC) [11]: 7.8 ± 3.1
% VEC ADH [12]: 80%
X ± 1 STD (logarithmic mean adherence of LAB per 50 VEC) [12]: 6.9 ± 3.3
% VEC ADH [13]: 100%
Range (adhered LAB per VEC) [13]: 1-66 LAB per VEC
X ± 1 STD (logarithmic mean adherence of LAB per 50 VEC) [13]: 15.9 ± 3.1
Overall Averages # LAB/VEC (Broth, frozen VECs, 10 donors): 7.76 LAB/VEC
Overall Averages % Adherence (Broth, frozen VECs, 10 donors): 78.4%
average adherence value (cells stored at refrigerated temperatures): 24.3 cells/VEC
adherence of inactive (preserved state) cells compared with metabolically active cells (frozen VECs, McIlvaines Buffer pH 4.5): equally well or better
average adherence value (room temperature stored cells): 21.9 cells/VEC
percent VEC cohesion value, average (stored at refrigerated temperature): 97.75%
percent VEC cohesion value, average (stored at room temperature): 97%
